Assay results as given in ChEMBL document CHEMBL5291721, “A preclinical secondary pharmacology resource illuminates target-adverse drug reaction associations of marketed drugs” (Nat Commun, 2023).

What was measured:
[1] = target: Delta-type opioid receptor (Homo sapiens, UniProt P41143)
[2] = target: D(1A) dopamine receptor (Homo sapiens, UniProt P21728); assay type: functional, cell-based
[3] = target: T1, Estrogen receptor (Homo sapiens, UniProt P03372)
T1 sequence (P03372 whole entry): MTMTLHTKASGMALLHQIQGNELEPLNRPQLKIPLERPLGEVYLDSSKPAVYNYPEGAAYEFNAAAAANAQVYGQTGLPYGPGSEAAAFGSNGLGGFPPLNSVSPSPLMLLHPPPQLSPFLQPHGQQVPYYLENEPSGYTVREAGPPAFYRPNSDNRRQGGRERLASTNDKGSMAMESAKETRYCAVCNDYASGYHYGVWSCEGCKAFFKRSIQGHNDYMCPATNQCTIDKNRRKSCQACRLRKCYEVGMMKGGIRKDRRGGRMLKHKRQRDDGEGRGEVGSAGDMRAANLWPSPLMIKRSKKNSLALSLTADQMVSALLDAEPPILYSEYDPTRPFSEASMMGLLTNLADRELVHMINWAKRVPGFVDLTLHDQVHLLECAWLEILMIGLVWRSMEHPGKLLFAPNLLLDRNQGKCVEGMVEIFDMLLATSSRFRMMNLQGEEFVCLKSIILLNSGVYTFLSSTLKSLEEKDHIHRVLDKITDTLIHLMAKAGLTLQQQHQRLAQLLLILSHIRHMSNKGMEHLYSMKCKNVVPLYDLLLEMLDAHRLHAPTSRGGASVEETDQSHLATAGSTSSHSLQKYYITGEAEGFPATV

[4] = target: Muscarinic acetylcholine receptor M3 (Homo sapiens, UniProt P20309)
[5] = target: Vasopressin V1a receptor (Homo sapiens, UniProt P37288)
[6] = target: T2, 5-hydroxytryptamine receptor 1A (Homo sapiens, UniProt P08908); assay type: functional, cell-based
T2 sequence (P08908 whole entry): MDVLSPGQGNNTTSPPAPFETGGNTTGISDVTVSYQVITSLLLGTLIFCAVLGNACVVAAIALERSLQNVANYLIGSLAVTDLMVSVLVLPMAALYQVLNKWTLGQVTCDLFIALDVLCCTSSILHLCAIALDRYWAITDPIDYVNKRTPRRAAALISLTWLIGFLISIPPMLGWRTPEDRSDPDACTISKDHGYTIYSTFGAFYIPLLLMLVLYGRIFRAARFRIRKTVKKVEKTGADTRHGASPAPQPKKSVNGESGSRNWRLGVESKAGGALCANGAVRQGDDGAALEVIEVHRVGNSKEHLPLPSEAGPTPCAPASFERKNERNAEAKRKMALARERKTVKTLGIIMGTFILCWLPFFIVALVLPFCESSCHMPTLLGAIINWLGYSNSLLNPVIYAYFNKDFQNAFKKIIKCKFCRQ

[7] = target: D(3) dopamine receptor (Homo sapiens, UniProt P35462)
[8] = target: Sodium-dependent noradrenaline transporter (Homo sapiens, UniProt P23975)
[9] = target: T3, Muscarinic acetylcholine receptor M2 (Homo sapiens, UniProt P08172); assay type: functional, cell-based
T3 sequence (P08172 whole entry): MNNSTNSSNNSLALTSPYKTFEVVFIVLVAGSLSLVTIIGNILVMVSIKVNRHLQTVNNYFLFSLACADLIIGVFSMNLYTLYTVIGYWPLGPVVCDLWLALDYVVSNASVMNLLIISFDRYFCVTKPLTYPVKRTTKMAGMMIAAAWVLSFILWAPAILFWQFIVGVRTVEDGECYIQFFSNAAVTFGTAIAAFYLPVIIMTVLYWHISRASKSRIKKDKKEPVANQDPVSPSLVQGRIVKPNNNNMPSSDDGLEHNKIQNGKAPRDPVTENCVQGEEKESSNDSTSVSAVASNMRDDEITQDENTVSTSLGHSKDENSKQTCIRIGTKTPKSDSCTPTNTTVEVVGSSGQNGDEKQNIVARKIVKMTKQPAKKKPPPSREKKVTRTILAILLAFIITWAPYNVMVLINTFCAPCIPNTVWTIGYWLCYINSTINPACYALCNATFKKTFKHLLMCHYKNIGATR

[10] = target: T4, Muscarinic acetylcholine receptor M1 (Homo sapiens, UniProt P11229); assay type: functional
T4 sequence (P11229 whole entry): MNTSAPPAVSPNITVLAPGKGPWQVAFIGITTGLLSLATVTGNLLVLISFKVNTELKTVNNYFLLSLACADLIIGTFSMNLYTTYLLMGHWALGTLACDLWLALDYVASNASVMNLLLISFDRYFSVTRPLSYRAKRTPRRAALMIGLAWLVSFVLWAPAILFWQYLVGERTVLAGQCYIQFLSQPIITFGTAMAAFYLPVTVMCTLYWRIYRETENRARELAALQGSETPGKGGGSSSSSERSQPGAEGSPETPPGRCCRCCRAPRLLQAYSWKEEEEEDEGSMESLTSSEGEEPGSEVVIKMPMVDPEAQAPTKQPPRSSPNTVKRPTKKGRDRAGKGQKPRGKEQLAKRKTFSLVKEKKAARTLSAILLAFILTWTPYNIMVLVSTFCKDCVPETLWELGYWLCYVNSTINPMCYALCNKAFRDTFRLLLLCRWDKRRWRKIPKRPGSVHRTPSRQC

[11] = target: T5, Cholecystokinin receptor type A (Homo sapiens, UniProt P32238)
T5 sequence (P32238 whole entry): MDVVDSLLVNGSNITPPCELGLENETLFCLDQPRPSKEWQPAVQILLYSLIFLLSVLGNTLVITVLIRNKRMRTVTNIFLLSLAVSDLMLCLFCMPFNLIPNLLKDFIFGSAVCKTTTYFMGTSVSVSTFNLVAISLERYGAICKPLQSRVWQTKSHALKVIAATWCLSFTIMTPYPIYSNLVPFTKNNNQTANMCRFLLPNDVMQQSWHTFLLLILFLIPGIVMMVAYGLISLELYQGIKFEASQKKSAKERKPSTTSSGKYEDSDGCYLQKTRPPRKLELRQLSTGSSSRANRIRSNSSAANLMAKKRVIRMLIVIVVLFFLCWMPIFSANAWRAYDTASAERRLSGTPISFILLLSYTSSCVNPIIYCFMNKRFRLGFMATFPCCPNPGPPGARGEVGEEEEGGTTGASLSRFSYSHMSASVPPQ
Note: assay procedure not described here.

Chain of D(1A) dopamine receptor (P21728 whole entry): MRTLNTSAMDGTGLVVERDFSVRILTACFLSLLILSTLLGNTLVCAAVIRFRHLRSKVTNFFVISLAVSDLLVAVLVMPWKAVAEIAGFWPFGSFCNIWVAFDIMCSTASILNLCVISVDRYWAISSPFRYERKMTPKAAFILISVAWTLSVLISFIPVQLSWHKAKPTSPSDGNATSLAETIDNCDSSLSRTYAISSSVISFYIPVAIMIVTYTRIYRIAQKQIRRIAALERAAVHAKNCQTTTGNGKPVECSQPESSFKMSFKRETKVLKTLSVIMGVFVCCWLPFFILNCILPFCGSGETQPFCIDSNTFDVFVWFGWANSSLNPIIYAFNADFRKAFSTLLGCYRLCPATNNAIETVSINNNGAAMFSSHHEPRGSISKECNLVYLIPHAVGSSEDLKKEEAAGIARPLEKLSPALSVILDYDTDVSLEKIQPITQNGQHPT
Chain of Delta-type opioid receptor (P41143 whole entry): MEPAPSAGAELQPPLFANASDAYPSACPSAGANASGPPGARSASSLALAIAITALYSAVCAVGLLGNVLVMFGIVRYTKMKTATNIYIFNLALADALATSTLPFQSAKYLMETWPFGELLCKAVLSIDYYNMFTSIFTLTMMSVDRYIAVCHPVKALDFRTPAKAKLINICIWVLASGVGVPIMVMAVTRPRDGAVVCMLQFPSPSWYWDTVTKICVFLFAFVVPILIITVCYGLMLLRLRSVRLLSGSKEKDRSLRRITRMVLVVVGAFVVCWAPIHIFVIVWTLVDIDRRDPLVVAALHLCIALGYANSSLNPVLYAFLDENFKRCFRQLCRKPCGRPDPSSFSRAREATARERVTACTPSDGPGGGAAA
Chain of Sodium-dependent noradrenaline transporter (P23975 whole entry): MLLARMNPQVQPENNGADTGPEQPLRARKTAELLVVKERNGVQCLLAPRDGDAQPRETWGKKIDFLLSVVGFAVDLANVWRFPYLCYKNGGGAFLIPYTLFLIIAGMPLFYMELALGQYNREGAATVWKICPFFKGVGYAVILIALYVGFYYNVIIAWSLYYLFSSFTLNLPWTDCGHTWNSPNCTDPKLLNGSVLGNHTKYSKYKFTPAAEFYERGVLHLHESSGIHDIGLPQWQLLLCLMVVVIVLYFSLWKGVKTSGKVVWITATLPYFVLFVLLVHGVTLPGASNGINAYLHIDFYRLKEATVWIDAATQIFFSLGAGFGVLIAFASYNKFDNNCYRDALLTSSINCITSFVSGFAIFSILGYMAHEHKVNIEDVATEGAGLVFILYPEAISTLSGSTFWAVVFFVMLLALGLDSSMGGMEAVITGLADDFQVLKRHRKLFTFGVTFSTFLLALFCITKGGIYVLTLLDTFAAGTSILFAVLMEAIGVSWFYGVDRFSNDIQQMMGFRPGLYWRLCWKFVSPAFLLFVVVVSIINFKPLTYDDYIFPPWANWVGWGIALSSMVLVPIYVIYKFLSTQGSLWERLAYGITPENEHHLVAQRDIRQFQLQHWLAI
Chain of D(3) dopamine receptor (P35462 whole entry): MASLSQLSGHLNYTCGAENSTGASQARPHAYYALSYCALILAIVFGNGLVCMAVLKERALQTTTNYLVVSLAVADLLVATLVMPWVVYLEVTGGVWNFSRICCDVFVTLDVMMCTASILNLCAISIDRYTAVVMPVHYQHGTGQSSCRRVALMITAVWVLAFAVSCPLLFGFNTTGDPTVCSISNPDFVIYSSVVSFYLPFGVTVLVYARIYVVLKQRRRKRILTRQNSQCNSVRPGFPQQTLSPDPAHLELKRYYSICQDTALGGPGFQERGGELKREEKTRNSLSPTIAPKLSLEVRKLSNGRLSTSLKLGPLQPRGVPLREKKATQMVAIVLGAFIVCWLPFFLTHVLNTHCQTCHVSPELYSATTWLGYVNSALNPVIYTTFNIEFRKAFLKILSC
Chain of Vasopressin V1a receptor (P37288 whole entry): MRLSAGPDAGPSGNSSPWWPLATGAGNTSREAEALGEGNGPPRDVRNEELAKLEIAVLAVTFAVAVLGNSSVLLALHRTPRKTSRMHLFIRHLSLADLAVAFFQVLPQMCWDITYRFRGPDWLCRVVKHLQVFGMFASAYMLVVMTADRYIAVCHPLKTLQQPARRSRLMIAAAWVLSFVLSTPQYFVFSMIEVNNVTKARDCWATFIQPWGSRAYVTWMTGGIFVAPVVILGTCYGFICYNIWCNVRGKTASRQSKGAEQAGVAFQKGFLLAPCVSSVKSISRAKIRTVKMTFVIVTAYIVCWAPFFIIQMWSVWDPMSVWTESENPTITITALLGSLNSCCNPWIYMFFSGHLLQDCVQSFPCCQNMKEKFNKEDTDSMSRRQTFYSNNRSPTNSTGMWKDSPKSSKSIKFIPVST
Chain of Muscarinic acetylcholine receptor M3 (P20309 whole entry): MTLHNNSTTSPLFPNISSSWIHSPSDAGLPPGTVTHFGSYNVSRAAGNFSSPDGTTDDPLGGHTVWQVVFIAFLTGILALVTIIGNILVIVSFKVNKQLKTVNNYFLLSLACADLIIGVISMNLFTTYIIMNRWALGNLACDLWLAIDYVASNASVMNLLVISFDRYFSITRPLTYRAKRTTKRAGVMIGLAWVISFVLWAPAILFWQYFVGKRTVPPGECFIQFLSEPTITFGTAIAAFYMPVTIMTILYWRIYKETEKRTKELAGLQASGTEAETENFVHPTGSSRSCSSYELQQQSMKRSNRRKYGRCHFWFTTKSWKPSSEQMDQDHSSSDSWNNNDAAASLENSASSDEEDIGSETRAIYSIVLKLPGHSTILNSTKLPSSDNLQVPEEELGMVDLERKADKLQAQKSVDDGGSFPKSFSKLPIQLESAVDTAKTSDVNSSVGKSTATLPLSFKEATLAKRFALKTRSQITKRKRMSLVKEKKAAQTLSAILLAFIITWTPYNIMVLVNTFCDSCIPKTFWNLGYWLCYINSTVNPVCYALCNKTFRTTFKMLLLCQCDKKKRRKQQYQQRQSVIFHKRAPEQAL

| SMILES | AC50 [1] [µM] | AC50 [2] [µM] | AC50 [3] [µM] | AC50 [4] [µM] | AC50 [5] [µM] | AC50 [6] [µM] | AC50 [7] [µM] | AC50 [8] [µM] | AC50 [9] [µM] | AC50 [10] [µM] | AC50 [11] [µM] |
| --- | --- | --- | --- | --- | --- | --- | --- | --- | --- | --- | --- |
| CC(=O)SC[C@@H](C)C(=O)N1CCC[C@H]1C(=O)N[C@@H](Cc1ccccc1)C(=O)O | > 30 | > 30 | > 30 | > 30 | > 30 | > 30 | > 30 | > 30 | > 30 | > 30 | > 30 |
| C[N@+]1(CCF)[C@@H]2CC[C@H]1C[C@@H](OC(=O)C(O)(c1ccccc1)c1ccccc1)C2 | > 30 | > 30 | > 30 | 0.0031 | > 30 | > 30 | > 30 | > 30 | 0.0145 | 0.0066 | > 30 |
| CC(=O)O[C@H](CC(=O)[O-])C[N+](C)(C)C [ACETYLCARNITINE] | > 30 | > 30 | > 30 | > 30 | > 30 | > 30 | > 30 | > 30 | > 30 | > 30 | > 30 |
| O=C1CN=C(c2ccccn2)c2cc(Br)ccc2N1 [BROMAZEPAM] | > 30 | > 10 | > 10 | > 30 | > 10 | > 10 | > 30 | > 10 | > 10 | > 10 | > 10 |
| Oc1ccc2c(c1)[C@@]13CCCC[C@@]1(O)[C@@H](C2)N(CC1CCC1)CC3 [BUTORPHANOL] | 0.18 | > 30 | > 30 | > 30 | > 30 | > 30 | > 30 | > 30 | > 30 | > 30 | > 30 |
| C=C1/C(=C\C=C2/CCC[C@]3(C)[C@@H]([C@H](C)/C=C/[C@@H](O)C4CC4)CC[C@@H]23)C[C@@H](O)C[C@@H]1O [CALCIPOTRIENE] | > 30 | > 30 | > 10 | > 30 | > 30 | 27 | > 30 | 20 | > 30 | > 30 | > 30 |
| CCN(CC)C(=O)Nc1ccc(OCC(O)CNC(C)(C)C)c(C(C)=O)c1 (stereo not drawn) [CELIPROLOL] | > 30 | > 30 | > 30 | > 30 | > 30 | > 30 | > 30 | > 30 | > 30 | > 30 | > 30 |
| C=C[C@@]1(C)CC(=O)[C@]2(O)[C@@]3(C)[C@@H](O)CCC(C)(C)[C@@H]3[C@H](O)[C@H](OC(C)=O)[C@@]2(C)O1 [COLFORSIN] | > 30 |  | > 30 | > 30 | > 30 | > 30 | > 30 | > 30 | 11 | > 30 | > 30 |
| CC(=O)[C@@]1(O)CC[C@H]2[C@@H]3C=C(Cl)C4=CC(=O)[C@@H]5C[C@@H]5[C@]4(C)[C@H]3CC[C@@]21C [CYPROTERONE] | > 30 | 2.07 | > 30 | > 30 | > 10 | > 10 | > 30 | > 10 | > 10 | > 10 | > 10 |
| CCCCCC(=O)O[C@]1(C(C)=O)CC[C@H]2[C@@H]3CCC4=CC(=O)CC[C@]4(C)[C@H]3CC[C@@]21C [HYDROXYPROGESTERONE CAPROATE] | > 30 | > 30 | > 30 | > 30 | > 30 | > 30 | > 30 | > 30 | > 30 | > 30 | > 30 |
| O=C(O)c1ccccc1Nc1cc(Cl)ccc1C(=O)O [LOBENZARIT] | > 30 | > 30 | > 30 | > 30 | > 30 | > 30 | > 30 | > 30 | > 30 | > 30 | > 30 |
| COc1cc2c(cc1OC)C(CCc1ccc(Cl)cc1)N(C)CC2 (stereo not drawn) [METHOPHOLINE] | > 30 | > 10 | > 30 | > 30 | > 30 | > 10 | > 30 | > 30 | > 10 | > 10 | > 30 |
| C/C(=C\C(=O)OCCCCCCCCC(=O)O)C[C@@H]1OC[C@H](C[C@@H]2O[C@H]2[C@@H](C)[C@H](C)O)[C@@H](O)[C@H]1O [MUPIROCIN] | > 30 | > 10 | > 10 | > 30 |  | > 10 | > 30 | > 30 | > 10 | > 10 | > 10 |
| C#CCOc1ccc(N)cc1C(=O)NCCCC [PARSALMIDE] | > 30 | > 30 | > 30 | > 30 | > 30 | > 30 | > 30 | > 30 | > 30 | > 30 | > 30 |
| COc1ccc2nc3cc(Cl)ccc3c(Nc3cc(CN4CCCC4)c(O)c(CN4CCCC4)c3)c2n1 [PYRONARIDINE] | > 30 | > 30 | > 30 | 25 | > 30 | > 30 | 21 | 8.1 | 15 | > 30 | > 30 |
